*1 amine or outer side, *2 acyl side, *3 side chain or, on linkers, in order; H or OH if unused. Where a SMILES comes first, the peptide text is derived from it. Bridges are numbered along the chain shown (N, C = ends). Roman numbers before positions name the chains, in order. [ ]: non-standard residue; d: D form. Actinocin(9to1) = Cc1c2oc3c(C)ccc(C(=O)[*:1])c3nc-2c(C(=O)[*:2])c(N)c1=O; NMeV = CN[C@H](C(=O)O)C(C)C; Sar = CNCC(=O)O
How the values were obtained:
rat liver microsomes = experiment: Stimulation of NADPH oxidation by rat hepatic microsomal incubations; assay type: biochemical; details: for percentage stimulation of NADPH oxidation: (drug-stimulated rate - basal rate)/basal rate × 100; for NADPH oxidation: measured at 340 nm, average ± standard error of triplicate
Text: It has been reported that the quinone imino chromophore of actinomycin can be subjected to enzyme-catalyzed single-electron reduction to give free-radical species that generate superoxides by reacting with molecular oxygen. The process needs a reductive cofactor NADPH, which is oxidized to NADP^+ during the process, giving a change in the absorbance at 340 nm that can be measured spectrophotometerically. Alternatively, the superoxides generated during the process may be allowed to react with epinephrine to produce adrenochrome, a chromophore with strong absorbance at 480 nm that can be measured spectrophotmetrically.
The superoxide formations were studied via NADPH oxidation catalyzed by AMD analogues in the presence of rat liver microsomes. […] The process of adrenochrome formation is inhibited by superoxide dismutase, confirming that superoxide is indeed generated in these systems.
^a The percentage stimulation = (drugstimulated rate basal rate)/basa
rate × 100 and is shown in parentheses. NADPH oxidation was measure
at 340 nm and adrenochrome formation was measured at 489 nm; the values
are average ± standard errors of triplicate analyses. ^b SOD,

[1] = Maximum tolerated dose (LD10) in tumor-free male mice; details: ip days 1, 5, 9; deaths observed during 21 days; from plot of log dose vs percent mortality
Method: The analogues were also tested in tumor-free male mice for their LD10 values (Table XIV). The animals were given a broad range of doses (ip) on days 1, 5, and 9. The maximum tolerated doses of AMD and the analogues that caused death in only 10% of the tested animals in 21 days (i.e., LD10) were recorded as MTD. […] On the basis of these values, the calculated therapeutic index values of SAD is 96, and those of RAD I, II, and III are 60, 67, and 70, respectively.
control in P388 tumor bearing mice. ^c MTD (maximum tolerated dose) i
the lethal dose (milligram/kilogram) for 10% normal BDF1 male mice
days). Values were calculated from a plot of log dose vs percent

B16 melanoma = experiment: In vivo antitumor activity against B16 melanoma; set-up: species or system BDF1 mice; details: for % ILS / survivors on day 65/total injected / MST (range), median survival time: at optimal dose, ip days 1, 5, 9; for MST (range), median survival time: range of days of death; for optimal dose: ip, days 1, 5, 9
Method: ^a 0.2 mL of 1:5 (weight/volume) brei of B16 melanoma implanted
ip on day 0 in groups of nine BDF1 mice. Drugs administered ip^b
MST (range), median survival time in days (range of days for death of
individual animal). ^c % ILS (surv), percent increase in life span
(survivors on day 65/total injected).

colon 38 adenocarcinoma = experiment: Activity against advanced colon carcinoma C38 tumor; assay type: in vivo, CDF1 mice; details: for % inhibn of tumor: tumors measured day 21
Method: In view of favorable activity agianst colon 26 carcinoma, further experiments using the active analogues were carried out on the advanced colon adenocarcinomas of mouse colon 38. […] The superiority of RAD III and SAD over AMD in inhibiting colon 38 carcinoma is evident from the data of both tumor weight inhibition and increases in survival time of the treated over nontreated mice and the larger number of long-term survivors produced by these analogues.
^a CDF1 mice were injected sc with colon 38 adenocarcinoma
fragments (70 mg) and treated with drugs with iv injections on day 1, 5,
and 9 following tumor imoplantation on day 0. ^b [100 (tumor weight o
treated mice/tumor weight of untreated mice)] × 100; data pooled
from two experiments, tumors measured on day 21 after implantation ^c
(Median survival time of treated mice/median survival of untreated mice)
× 100; in parenthesis, number of over 100 day survivors/number of […]

[2] = tested on: CX-1 human colon adenocarcinoma; experiment: Chemotherapy of human colon CX-1 tumor heterotransplanted in nude mice; assay type: in vivo, human tumor in athymic mice; details: for % T/C, optimal: TST 15, observed day 22; for response of CX-1 tumor to treatment (in words): three iv treatments weekly from 15th day of transplant, at the doses tested
Method: Tables XI and XII show the effectiveness of SAD (2) and RAD (3b and 3c) against CX-1 human colon adenocarcinoma heterotransplanted into athymic mice, with three iv treatments with drugs on a weekly schedule starting on the 15th day of tumor transplant. AMD and the analogues were tested at doses of 45 and 60 ug/kg.
^a -, % T/C high than 50%; ±, % T/C close to 50%; +, % T/C from 50
to 35%; ++, % T/C from 35% to 20%; +++, % T/C lower than 20%; ++++,
regression of the tumor to a volume lower than 10% of the volume at the
start of treatment. ^b Statistically significant as evaluated by the
^a Intravenous treatment, once a week for three weeks; eight mice per
group. ^b TST; number of days between tumor transplant and starting o
treatment. ^c Numbers in parentheses; day of observation after the […]

[3] = tested on: P388/S (adriamycin sensitive) leukemia; experiment: Antitumor activity in vivo, P388/S leukemia; set-up: species or system mice; details: for tumor free survivors/total on day 60: P388/S, at optimal dose, ip days 1, 5, 9
Method: The analogues were tested for their antitumor activities in P388 lymphocytic leukemia in male BDF1 mice.
^a Male CDF1 mic inoculated ip: 10^6 cells inoculum, day 0.
Drugs administered in 10% dimethyl sulfoxidesaline on days 1, 5, and 9. %
ILS = percent increase in life span. Fractions in parentheses = tumor fre
survivors/total on day 60^b. P388/S (adriamycin sensitive) and
P388/ADR (adriamycin resistant) tumors were evaluated in the same
experiment with agent listed.

[4] = tested on: P388/ADR (adriamycin resistant) leukemia; experiment: Antitumor activity in vivo, P388/ADR leukemia; set-up: species or system mice; details: at optimal dose, ip days 1, 5, 9
Method: The analogues were also tested against P388/ADR murine leukemia following the standard protocol (Table VI).
ILS = percent increase in life span.

[5] = tested on: human colon carcinoma HT-29 cell line; experiment: Cell viability by soft agar cloning; assay type: cell-based; details: 2 h treatment at 37° C., from plot of concentration vs colony formation
Method: Furthermore, the activity of the analogues against a human colon carcinoma HT-29 cell line in culture was evaluated. After the cells were treated for 2 h with 0.01-10.0 uM of the drugs at 37° C., the cells were washed with ice-cold PBS (phosphate buffered saline), and the cell viability was assessed by soft agar cloning. Cells viability was expressed as the percentage of colonies from the drug-treated cells relative to control cells after correcting for the cloning efficiency, which ranged from 60% to 80%.

[6] = dose 0.075 mg/kg iv days 1, 5, 9
[7] = dose 0.15 mg/kg iv days 1, 5, 9
[8] = dose 0.30 mg/kg iv days 1, 5, 9
[9] = dose 0.45 mg/kg iv days 1, 5, 9
[10] = dose 0.60 mg/kg iv days 1, 5, 9
[11] = dose 45 μg/kg iv once a week for three weeks
[12] = dose 60 μg/kg iv once a week for three weeks
[13] = dose 1.20 mg/kg iv days 1, 5, 9

Row | SMILES | percentage stimulation of NADPH oxidation (rat liver microsomes) [%] | NADPH oxidation (rat liver microsomes) | MTD (maximum tolerated dose), lethal dose for 10% of normal mice (LD10) [1] [milligram/kilogram] | % ILS (B16 melanoma) [%] | survivors on day 65/total injected (B16 melanoma) | MST (range), median survival time (B16 melanoma) | optimal dose (B16 melanoma) [μg/kg per inj] | % T/C (median survival time) (colon 38 adenocarcinoma; [7]) [%] | % inhibn of tumor (colon 38 adenocarcinoma; [7]) [%] | % T/C (median survival time) (colon 38 adenocarcinoma; [8]) [%] | % inhibn of tumor (colon 38 adenocarcinoma; [8]) [%] | % T/C (median survival time) (colon 38 adenocarcinoma; [10]) [%] | % inhibn of tumor (colon 38 adenocarcinoma; [10]) [%] | % T/C, optimal [2, 11] [%] | % T/C, optimal [2, 12] [%] | response of CX-1 tumor to treatment (in words) [2] | tumor free survivors/total on day 60 [3] | further results
1 | Cc1c2oc3c(C)ccc(C(=O)N[C@@H]4C(=O)N[C@H](C(C)C)C(=O)N5CCC[C@H]5C(=O)N(C)CC(=O)N(C)[C@@H](C(C)C)C(=O)O[C@@H]4C)c3nc-2c(C(=O)N[C@@H]2C(=O)N[C@H](C(C)C)C(=O)N3CCC[C@H]3C(=O)N(C)CC(=O)N(C)[C@@H](C(C)C)C(=O)O[C@@H]2C)c(N)c1=O [AMD (1), Actinomycin D] (I: T[dV]P[Sar][NMeV] / II: T[dV]P[Sar][NMeV]; ester I:1-I:C, II:1-II:C; linker I:N-II:N via Actinocin(9to1)) | 9.9 | 10.01 ± 0.90 nmol/min per mg of protein | 0.25 | 48 | 2/9 | 43(36-54) days | 250 | 107 | 30 | 134 | 67 | 103 | 89 | 34 | 36 | ineffective | 1/8 | % T/C (median survival time) (colon 38 adenocarcinoma; [6]): 100%; % inhibn of tumor (colon 38 adenocarcinoma; [6]): 30%; % T/C (median survival time) (colon 38 adenocarcinoma; [9]): 170%; % inhibn of tumor (colon 38 adenocarcinoma; [9]): 83%
2 | Cc1c2oc3c(C)c4oc(-c5ccccc5)nc4c(C(=O)N[C@@H]4C(=O)N[C@H](C(C)C)C(=O)N5CCC[C@H]5C(=O)N(C)CC(=O)N(C)[C@@H](C(C)C)C(=O)O[C@@H]4C)c3nc-2c(C(=O)N[C@@H]2C(=O)N[C@H](C(C)C)C(=O)N3CCC[C@H]3C(=O)N(C)CC(=O)N(C)[C@@H](C(C)C)C(=O)O[C@@H]2C)c(N)c1=O [RAD II (3b)] | 610 | 65.0 ± 5.95 nmol/min per mg of protein | 2.00 | 103 | 5/9 | 59(53-59) days | 300 | 103 | 29 | 137 | 70 | 170 | 83 | 48 | 24 | marginal but positive activity | 4/8 | over 100 day survivors/number of mice (colon 38 adenocarcinoma; [7]): 1/9; over 100 day survivors/number of mice (colon 38 adenocarcinoma; [10]): 3/9; % T/C (median survival time) (colon 38 adenocarcinoma; [13]): 103%; over 100 day survivors/number of mice (colon 38 adenocarcinoma; [13]): 2/9; % inhibn of tumor (colon 38 adenocarcinoma; [13]): 88%; tumor free survivors/total on day 60 [4]: 1/8; effectiveness relative to AMD with respect to %ILS and long-time survivors ([3]; P388 lymphocytic leukemia in mice): two-to threefold; LD90, drug concentration producing 90% reduction in cell viability [5]: 0.2 µM

Reference: patent publication US4966962A, “Reverse analogue of actinomycin D” (Trustees of Boston University, priority 1988, dated 1990)
